Test results from patent US20260217767A1, “NOVEL A4B7 THIOETHER PEPTIDE DIMER ANTAGONISTS” (Protagonist Therapeutics, Inc., priority 2014, published 2026).
Where a SMILES comes first, the peptide text is derived from it.

Key:
α4β1 = target: T1, α4β1 (Homo sapiens, UniProt P05556+P13612); assay: α4β1-VCAM Competition ELISA; type: binding; conditions: thioether peptide dimers, Table 7; read-out: ELISA A4B1
T1 construct: purchased R&D Systems 5668-A4
Method: α4β1-VCAM Competition ELISA
A Nunc MaxiSorp plate was coated with rh VCAM-1/CD106 Fc chimera (R&D #862-VC) at 400 ng/well in 50 ul per well in 1×PBS and incubated overnight at 4° C. The solution was removed by shaking and then blocked with 250 ul of 1% BSA in 1×PBS per well. The wells were then incubated at room temperature for 1 hr with shaking. Each well was then washed once with wash buffer (50 mM Tris-HCl pH7.6, 100 mM NaCL, 1 mM MnCl2 or MgCl2, 0.05% Tween-20). 25 ul of serial dilutions of peptides starting at 200 μM in assay buffer (Assay buffer: 50 mM Tris-HCl pH7.6, 100 mM NaCl, 1 mM MnCl2 or MgCl2, 0.05% Tween-20) was added to each well. Additionally, 25 μl of α4β1 (R&D Systems #5668-A4) was added to each well at a fixed concentration of 120 nM. The final peptide and α4β1 concentrations were 100 μM and 60 nM, respectively. The plates were then incubated at 37° C. for 2 hr. The solution was then removed by shaking and each well was washed three times with wash buffer. 50 ul of 9F10 antibody at 4 ug/ml (purified mouse anti-human CD49d, BD Bioscience Cat #555502) was then added to each well, and the plate was incubated at room temperature for Ihr with shaking. The solution was again removed by shaking, and each well was washed three times with wash buffer. 50 μl of peroxidase-conjugated AffiniPure Goat anti-mouse IgG (Jackson immune research cat #115-035-003) diluted in 1:5000 in assay buffer was added to each well. The plate was incubated at room temperature for 30 min with shaking. Each well was then washed 3 times with wash buffer. 100 ul of TMB was then added to each well and closely observe during developing time. The reaction was stepped with 2N H2SO4 and absorbance was read at 450 nm.

[1] = Simulated Intestinal Fluid (SIF) Stability Assay; type: in vitro ADME; conditions: pig, simulated intestinal fluid (SIF) with 1% porcine pancreatin, pH 6.5, porcine pancreatin, 37° C.; dimers, Table 7
Method in brief: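 Percent peptide remaining over time was measured by LC-MS/MS as the peak-area ratio to internal standard, and a first-order decay fit gave half-life. Digests contained 22 μM peptide and 1% pancreatin in pH 6.5 FaSSIF buffer at 37° C. Aliquots were quenched in organic solvent with formic acid.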

Jurkat E6.1 cells = Jurkat E6.1 cells (Homo sapiens, UniProt P05556+P13612); assay: α4β1-VCAM Cell Adhesion Assay; type: cell-based; conditions: thioether peptide dimers, Table 7; read-out: Cell Adhesion A4B1
Method: α4β1-VCAM Cell Adhesion Assay
Jurkat E6.1 cells (Sigma #88042803) were cultured in RPMI 1640 HEPES medium (Invitrogen #22400-089) supplemented with 10% serum (Fetal Bovine Serum, Invitrogen #16140-071), 1 mM sodium pyruvate (Invitrogen #11360-070), 2 mM L-glutamine (Invitrogen #25030-081) and Penicillin-Streptomycin (Invitrogen #15140-122) at 100 units of penicillin and 100 μg of streptomycin per ml. The cells were washed two times in DMEM medium (ATCC #30-2002) supplemented with 0.1% BSA, 10 mM HEPES pH 7 and 1 mM MnCl2. The cells were re-suspended in supplemented DMEM medium at a density of 4×10^6 cells/ml.
A Nunc MaxiSorp plate was coated with rh VCAM-1/CD106 Fc chimera (R&D #862-VC) at 400 ng per well in 50 μl per well in 1×PBS and incubated at 4° C. overnight. The solution was then removed by shaking, blocked with 250 μl per well PBS containing 1% BSA, and incubated at 37° C. for 1 hr. The solution was removed by shaking. Peptides were diluted by serial dilution in a final volume of 50 μl per well (2× concentration). To each well, 50 μl of cells (200,000 cells) were added and the plate was incubated at 37° C., 5% CO2 for 30-45 min to allow cell adhesion. The wells were washed manually three times (100 μl per wash) with supplemented DMEM. After the final wash, 100 μl/well of supplemented DMEM and 10 ul/well of MTT reagent (ATTC cat #30-1010K) were added. The plate was incubated at 37° C., 5% CO2 for 2-3 hrs until a purple precipitate is visible. 100 ul of Detergent Reagent (ATTC cat #30-1010K) is added to each well. The plate was covered from the light, wrapped in Parafilm to prevent evaporation, and left overnight at room temperature in the dark. The plate was shaken for 5 min and the absorbance at 570 nm is measured. To calculate the dose response, the absorbance value of control wells not containing cells was subtracted from each test well.

RPMI 8866 cells = target: T2, RPMI 8866 cells (Homo sapiens, UniProt P13612+P26010); assay: α4β7-MAdCAM Cell Adhesion Assay; type: cell-based; conditions: thioether peptide dimers, Table 7; read-out: Cell-Adhesion A4B7
T2 sequence (P13612 34-1032): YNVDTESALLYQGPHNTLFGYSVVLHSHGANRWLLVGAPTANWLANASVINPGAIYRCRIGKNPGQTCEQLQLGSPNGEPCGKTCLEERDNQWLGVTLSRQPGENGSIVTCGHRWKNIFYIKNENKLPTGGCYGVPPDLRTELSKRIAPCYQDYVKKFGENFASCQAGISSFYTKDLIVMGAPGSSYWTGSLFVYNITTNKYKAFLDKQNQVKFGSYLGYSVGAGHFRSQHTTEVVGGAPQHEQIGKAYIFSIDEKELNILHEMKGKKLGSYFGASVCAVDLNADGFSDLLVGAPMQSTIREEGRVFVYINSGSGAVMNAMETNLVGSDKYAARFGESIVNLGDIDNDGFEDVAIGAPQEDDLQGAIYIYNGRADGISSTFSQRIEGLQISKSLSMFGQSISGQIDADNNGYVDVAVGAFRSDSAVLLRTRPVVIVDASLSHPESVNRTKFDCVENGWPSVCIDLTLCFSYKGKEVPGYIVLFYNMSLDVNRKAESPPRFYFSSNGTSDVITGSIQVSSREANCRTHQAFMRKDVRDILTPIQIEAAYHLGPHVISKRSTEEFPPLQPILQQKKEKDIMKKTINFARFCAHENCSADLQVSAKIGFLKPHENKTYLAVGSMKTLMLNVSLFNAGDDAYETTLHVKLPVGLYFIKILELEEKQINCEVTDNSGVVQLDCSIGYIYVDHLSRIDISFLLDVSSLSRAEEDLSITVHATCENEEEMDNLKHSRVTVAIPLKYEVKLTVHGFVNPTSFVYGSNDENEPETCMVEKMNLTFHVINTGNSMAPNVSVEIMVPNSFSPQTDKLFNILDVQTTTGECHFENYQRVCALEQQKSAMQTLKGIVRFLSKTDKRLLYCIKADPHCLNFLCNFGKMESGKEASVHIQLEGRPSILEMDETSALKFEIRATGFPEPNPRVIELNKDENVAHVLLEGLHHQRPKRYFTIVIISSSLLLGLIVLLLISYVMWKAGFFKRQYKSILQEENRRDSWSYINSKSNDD
T2 sequence (P26010 20-798): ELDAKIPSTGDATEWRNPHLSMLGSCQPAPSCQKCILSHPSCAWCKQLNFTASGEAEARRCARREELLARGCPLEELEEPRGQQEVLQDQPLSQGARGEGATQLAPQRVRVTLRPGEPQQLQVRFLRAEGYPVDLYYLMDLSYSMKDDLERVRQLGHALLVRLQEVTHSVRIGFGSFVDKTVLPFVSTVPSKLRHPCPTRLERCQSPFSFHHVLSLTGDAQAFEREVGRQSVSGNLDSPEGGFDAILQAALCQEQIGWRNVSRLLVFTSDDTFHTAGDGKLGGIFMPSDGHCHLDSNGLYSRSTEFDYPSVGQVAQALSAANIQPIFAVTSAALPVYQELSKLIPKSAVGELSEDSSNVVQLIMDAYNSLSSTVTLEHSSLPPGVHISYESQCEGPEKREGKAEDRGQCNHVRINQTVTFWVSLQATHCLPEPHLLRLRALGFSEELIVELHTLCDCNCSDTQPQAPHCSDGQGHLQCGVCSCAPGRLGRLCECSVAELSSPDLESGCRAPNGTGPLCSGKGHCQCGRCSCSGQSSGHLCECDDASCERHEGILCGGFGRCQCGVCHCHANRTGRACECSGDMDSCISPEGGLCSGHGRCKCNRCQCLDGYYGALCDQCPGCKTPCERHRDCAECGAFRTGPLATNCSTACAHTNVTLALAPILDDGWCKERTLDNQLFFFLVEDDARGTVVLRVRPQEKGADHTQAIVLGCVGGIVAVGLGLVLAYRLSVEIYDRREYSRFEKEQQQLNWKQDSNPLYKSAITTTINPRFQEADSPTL
Method in brief: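 Peptide inhibition of adhesion measured with MAdCAM-1/Fc chimera immobilised at 200 ng/well and MnCl2-activated (1 mM) RPMI 8866 cells, 30-45 min at 37° C. Adherent cells remaining after three washes detected by MTT reduction at 570 nm, corrected for no-cell wells, giving dose response.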

T1 sequence (P05556 21-728 limits assumed, one chain of several): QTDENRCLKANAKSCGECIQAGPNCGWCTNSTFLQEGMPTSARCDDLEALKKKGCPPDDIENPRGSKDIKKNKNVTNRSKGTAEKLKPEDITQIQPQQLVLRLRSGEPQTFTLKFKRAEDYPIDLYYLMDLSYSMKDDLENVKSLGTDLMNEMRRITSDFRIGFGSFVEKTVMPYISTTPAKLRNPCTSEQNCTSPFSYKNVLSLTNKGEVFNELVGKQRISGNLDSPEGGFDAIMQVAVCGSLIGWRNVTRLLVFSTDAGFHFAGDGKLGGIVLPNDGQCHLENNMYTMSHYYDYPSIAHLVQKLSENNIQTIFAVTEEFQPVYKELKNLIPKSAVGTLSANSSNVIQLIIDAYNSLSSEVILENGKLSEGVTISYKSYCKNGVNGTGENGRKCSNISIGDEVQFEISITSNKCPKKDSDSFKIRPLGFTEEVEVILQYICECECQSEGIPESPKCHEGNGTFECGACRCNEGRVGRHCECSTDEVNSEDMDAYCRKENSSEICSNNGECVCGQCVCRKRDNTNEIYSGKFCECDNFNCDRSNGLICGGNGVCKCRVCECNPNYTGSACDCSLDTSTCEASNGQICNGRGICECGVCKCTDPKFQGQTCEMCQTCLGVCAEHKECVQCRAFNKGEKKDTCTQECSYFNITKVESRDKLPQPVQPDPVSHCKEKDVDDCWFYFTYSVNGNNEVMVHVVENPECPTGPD
Sequence of Jurkat E6.1 cells (P05556 21-798, one chain of several): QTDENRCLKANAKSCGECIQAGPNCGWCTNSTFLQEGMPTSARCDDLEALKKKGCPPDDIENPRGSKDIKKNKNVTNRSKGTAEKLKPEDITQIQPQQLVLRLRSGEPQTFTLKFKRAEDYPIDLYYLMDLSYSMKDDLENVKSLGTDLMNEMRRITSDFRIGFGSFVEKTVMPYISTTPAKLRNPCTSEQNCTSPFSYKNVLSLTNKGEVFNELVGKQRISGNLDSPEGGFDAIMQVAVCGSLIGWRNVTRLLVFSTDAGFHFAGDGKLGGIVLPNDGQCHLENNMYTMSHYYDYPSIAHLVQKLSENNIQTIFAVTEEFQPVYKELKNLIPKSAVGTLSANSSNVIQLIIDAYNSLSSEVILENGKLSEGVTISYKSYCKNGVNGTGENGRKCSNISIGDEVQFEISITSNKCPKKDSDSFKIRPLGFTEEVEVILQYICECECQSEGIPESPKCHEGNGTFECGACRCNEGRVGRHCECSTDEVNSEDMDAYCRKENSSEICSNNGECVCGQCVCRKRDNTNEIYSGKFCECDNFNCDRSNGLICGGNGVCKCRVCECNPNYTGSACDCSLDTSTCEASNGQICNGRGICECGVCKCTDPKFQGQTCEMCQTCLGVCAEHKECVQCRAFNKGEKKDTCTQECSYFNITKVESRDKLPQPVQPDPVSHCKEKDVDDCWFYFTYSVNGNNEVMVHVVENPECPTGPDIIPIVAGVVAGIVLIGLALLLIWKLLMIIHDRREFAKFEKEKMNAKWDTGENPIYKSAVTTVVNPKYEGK

Compound	IC50 (α4β1) [nM]	half-life at 22 μM [1] [h]	IC50 (Jurkat E6.1 cells) [nM]	IC50 (RPMI 8866 cells) [nM]
CC(C)C[C@@H]1NC(=O)[C@H]([C@@H](C)O)NC(=O)[C@H](CC(=O)O)NC(=O)[C@H](CO)NC(=O)[C@H](CCCNC(=N)N)N(C)C(=O)c2ccccc2CSC(C)(C)[C@@H](C(=O)N[C@@H](Cc2c[nH]c3ccccc23)C(=O)N[C@@H](CCC(=O)O)CC(=O)N[C@H](CCCCN)C(N)=O)NC1=O [compound 151] (HELM PEPTIDE1{[meR].S.D.T.L.[Pen].W.[O=C(O)CC[C@@H](CC(=O)[*:2])N[*:1]].[dK].[am]}|CHEM1{[O=C(c1ccccc1C[*:2])[*:1]]}$PEPTIDE1,CHEM1,1:R1-1:R1|PEPTIDE1,CHEM1,6:R3-1:R2$$$V2.0)	25 to 100	> 3	–	–
CC(C)C[C@@H]1NC(=O)[C@H]([C@@H](C)O)NC(=O)[C@H](CC(=O)O)NC(=O)[C@H](CO)NC(=O)[C@H](CCCNC(=N)N)N(C)C(=O)c2ccccc2CSC(C)(C)[C@@H](C(=O)N[C@@H](Cc2ccc3ccccc3c2)C(=O)N[C@@H](CCC(=O)O)CC(=O)N[C@H](CCCCN)C(N)=O)NC1=O [compound 161]	25 to 100	> 3	> 100000	–
CC(C)C[C@@H]1NC(=O)[C@H]([C@@H](C)O)NC(=O)[C@H](CC(=O)O)NC(=O)[C@H](CO)NC(=O)[C@H](CCCNC(=N)N)N(C)C(=O)c2ccccc2CSC(C)(C)[C@@H](C(=O)N[C@@H](Cc2ccc(O)cc2)C(=O)N[C@@H](CCC(=O)O)C(=O)N[C@H](CCCCN)C(N)=O)NC1=O [compound 168] (HELM PEPTIDE1{[meR].S.D.T.L.[Pen].Y.E.[dK].[am]}|CHEM1{[O=C(c1ccccc1C[*:2])[*:1]]}$PEPTIDE1,CHEM1,1:R1-1:R1|PEPTIDE1,CHEM1,6:R3-1:R2$$$V2.0)	25 to 100	–	> 100000	–
CC(C)C[C@@H]1NC(=O)[C@H]([C@@H](C)O)NC(=O)[C@H](CC(=O)O)NC(=O)[C@H](CO)NC(=O)[C@H](CCCNC(=N)N)N(C)C(=O)c2ccccc2CSC(C)(C)[C@@H](C(=O)N[C@@H](Cc2c[nH]c3ccccc23)C(=O)N[C@H](CCC(=O)O)C(=O)N[C@@H](CCC(=O)O)C(=O)N[C@H](CCCCN)C(N)=O)NC1=O [compound 194] (HELM PEPTIDE1{[meR].S.D.T.L.[Pen].W.[dE].E.[dK].[am]}|CHEM1{[O=C(c1ccccc1C[*:2])[*:1]]}$PEPTIDE1,CHEM1,1:R1-1:R1|PEPTIDE1,CHEM1,6:R3-1:R2$$$V2.0)	100 to 1000	–	–	< 25
CC(C)C[C@@H]1NC(=O)[C@H]([C@@H](C)O)NC(=O)[C@H](CC(=O)O)NC(=O)[C@H](CO)NC(=O)[C@H](CCCNC(=N)N)N(C)C(=O)c2ccccc2CSC(C)(C)[C@@H](C(=O)N[C@@H](Cc2c[nH]c3ccccc23)C(=O)N[C@H](CCC(=O)O)C(=O)N[C@@H](CO)C(=O)N[C@H](CCCCN)C(N)=O)NC1=O [compound 191] (HELM PEPTIDE1{[meR].S.D.T.L.[Pen].W.[dE].S.[dK].[am]}|CHEM1{[O=C(c1ccccc1C[*:2])[*:1]]}$PEPTIDE1,CHEM1,1:R1-1:R1|PEPTIDE1,CHEM1,6:R3-1:R2$$$V2.0)	–	–	> 100000	< 25
